Source: US8017629B2, “Compounds and uses thereof in modulating amyloid β” (Neurogenetic Pharmaceuticals, Inc., priority 2003, dated 2011)
pEC50: −log10 of the molar value.

Tested on: Aβ42 levels in the extracellular medium
Experiment: FRET (HTRF) assay, Aβ42 level of the extracellular medium of SH-SY5Y-APP cells
Format: cell-based
Details: Homo sapiens, concentration at which reduction of Aβ42 level was half of the maximum reduction, read-out: Ab42 Potency
Experimental: Compounds were evaluated for activity in modulating Aβ42 and Aβ40 levels in the extracellular medium using a homogeneous time-resolved fluorescence (HTRF) assay as follows.
For the HTRF assay, either 5 or 10 μl of supernatant from treated cells was added to 10 or 15 μl of labeled antibody pairs, for a total volume of 20 μl, and incubated for 20-24 hours at 4° C. The labeled antibody pairs were either 8000 pg B436-XL665 and 400 pg B113 Europium, for assessing Aβ40 levels, or 8000 pg B436-XL665 and 400 pg A387 Europium, for assessing Aβ42 levels, diluted in 50 mM NaPO4, 0.2% BSA, 0.5M KF, pH 7. The fluorescence was read on a BMG Rubystar at 620 nm and 665 nm.

| Structure (SMILES) | pEC50 |
| --- | --- |
| Cc1ccc(N2CCN(C)CC2)cc1Nc1nc(-c2ccc(-n3ccnc3)cc2)cs1 [Compound 255] | 6.00 to 6.70 |
| Cc1cn(-c2ccc(-c3csc(Nc4cc(N5CCSCC5)ccc4C)n3)cn2)cn1 [Compound 281] | > 6.70 |
| Cc1cccc(Nc2nc(-c3ccc(N4CCN(C)CC4)cc3)cs2)c1 [Compound 226] | 5.30 to 5.96 |
| COc1cc(C)c(Nc2nc(-c3ccc(-n4cnc(C)c4)c(F)c3)cs2)cc1C(C)C [Compound 310] | > 6.70 |
| CNCCN(C)c1ccc(C)c(Nc2nc(-c3ccc(-n4ccnc4)cc3)cs2)c1 [Compound 258] | 5.30 to 5.96 |
| CN1CCN(c2ccc(-c3csc(Nc4ccc5c(c4)OCCO5)n3)cc2)CC1 [Compound 134] | 5.30 to 5.96 |
| CSc1cccc(Nc2nc(-c3ccc(N(C)C)cc3)cs2)c1 [Compound 165] | 5.00 to 5.29 |
| Cc1cc(N2CCN(Cc3ccccc3)CC2)ccc1Nc1nc(-c2ccc(-n3ccnc3)cc2)cs1 [Compound 201] | 5.30 to 5.96 |
| COc1ccc(Nc2nc(-c3ccc4c(c3)CCC(=O)N4)cs2)c(OC)c1 [Compound 120] | 4.52 to 5.00 |
| CC(C)N(c1ccccc1)c1ccc(Nc2nc(-c3ccc(-n4ccnc4)cc3)cs2)cc1 [Compound 146] | 5.30 to 5.96 |
| CCN(C)c1cc(Nc2nc(-c3ccc(-n4cnc(C)c4)cc3)cs2)c(C)cc1C [Compound 335] | > 6.70 |
| CCN(CCOC)c1ccc(Nc2nc(-c3ccc(-n4cnc(C)c4)nc3)cs2)c(C)c1 [Compound 261] | 6.00 to 6.70 |
| CCc1cn(-c2ccc(-c3csc(Nc4ccc(N(CC)CC)cc4C)n3)cc2)cn1 [Compound 272] | 6.00 to 6.70 |
| CCN(CC)c1ccc(C)c(Nc2nc(-c3ccc(-c4ccoc4)cc3)cs2)c1 [Compound 311] | 5.30 to 5.96 |
| COc1cc(Nc2nc(-c3ccc(-c4ccccn4)s3)cs2)cc(OC)c1OC [Compound 106] | 5.00 to 5.29 |
| CN1CCN(c2ccc(-c3csc(Nc4ccc5c(cnn5C)c4)n3)cc2)CC1 [Compound 140] | 5.00 to 5.29 |
| COc1cc(Nc2nc(-c3ccc(O)c(O)c3)cs2)cc(OC)c1OC [Compound 112] | 4.52 to 5.00 |
| CS(=O)(=O)c1ccc(-c2csc(Nc3c(Cl)cc(Cl)cc3Cl)n2)cc1 [Compound 214] | 4.52 to 5.00 |
| COc1ccc(-c2csc(Nc3ccc4c(c3)OCCO4)n2)c(OC)c1 [Compound 182] | 4.52 to 5.00 |
| Cc1cc(C)c(Nc2nc(-c3ccc(-n4nccn4)cc3)cs2)cc1C [Compound 244] | 5.30 to 5.96 |
| Cc1ccc(Nc2nc(-c3ccc(C#N)cc3)cs2)cc1Cl [Compound 193] | 4.52 to 5.00 |

| Structure (SMILES) | pEC50 |
| --- | --- |
| Cc1cc(C)c(Nc2nc(-c3ccc(-n4cnc(Br)c4)cc3)cs2)c(C)c1 [Compound 251] | 5.30 to 5.96 |
| CCN(CC)c1ccc(C)c(Nc2nc(-c3ccc(-n4cnc(C)c4)c(F)c3)cs2)c1 [Compound 309] | > 6.70 |
| COc1ccc(-c2nc(Nc3cc(Cl)c(Cl)cc3Cl)sc2CC(=O)O)cc1 [Compound 187] | 5.30 to 5.96 |
| COc1ccc(Nc2nc(-c3ccc(N4CCN(C)CC4)cc3)cs2)cc1 [Compound 137] | 5.30 to 5.96 |
| COc1cc(C)c(Nc2nc(-c3ccc(-n4cnc(C)c4)cc3)cs2)cc1C(C)C [Compound 295] | > 6.70 |
| CCN(CC)c1cc(C)c(Nc2nc(-c3ccc(-n4cnc(C)c4)nc3)cs2)cc1C [Compound 286] | > 6.70 |
| Clc1cccc(Nc2nc(-c3ccc4c(c3)OCO4)cs2)c1 [Compound 154] | 4.52 to 5.00 |
| CCOc1cc(C)c(Nc2nc(-c3ccc(-n4cnc(C)c4)cc3)cs2)cc1C [Compound 271] | > 6.70 |
| COc1ccc(-c2csc(Nc3ccc4c(c3)OCO4)n2)c(OC)c1 [Compound 104] | 5.30 to 5.96 |
| Oc1ccc(Nc2nc(-c3ccc4c(c3)OCO4)cs2)cc1 [Compound 118] | 5.00 to 5.29 |
| CCN(CC)c1ccc(Nc2nc(-c3ccc(-n4cnc(C)c4)cc3OC)cs2)c(C)c1 [Compound 190] | 6.00 to 6.70 |
| Cc1cn(-c2ncc(-c3csc(Nc4cc(C)c(C)cc4C)n3)cn2)cn1 [Compound 349] | > 6.70 |
| COc1cc(C)c(Nc2nc(-c3ccc(-n4cc(C)cn4)cc3)cs2)cc1C(C)C [Compound 308] | 6.00 to 6.70 |
| Cc1cn(-c2ccc(-c3csc(Nc4cc(N(C)C)ccc4C)n3)cn2)cn1 [Compound 282] | > 6.70 |
| Cc1ccc(NCC2CCN(C)CC2)cc1Nc1nc(-c2ccc(-n3ccnc3)cc2)cs1 [Compound 256] | 5.30 to 5.96 |
| CN1CCN(c2ccc(-c3csc(Nc4ccc(Cl)cc4)n3)cc2)CC1 [Compound 148] | 6.00 to 6.70 |
| CCN(CC)CCN(C)c1ccc(Nc2nc(-c3ccc(-n4ccnc4)cc3)cs2)c(C)c1 [Compound 210] | 5.30 to 5.96 |
| Cc1cn(-c2ccc(-c3nc(Nc4cc(C)c(C)cc4C)sc3C)cc2)cn1 [Compound 242] | 6.00 to 6.70 |
| CCc1cccc(Nc2nc(-c3ccc(N4CCN(C)CC4)cc3)cs2)c1 [Compound 234] | 5.30 to 5.96 |
| CCN(CC)c1cc(Nc2nc(-c3ccc(-n4cnc(C)c4)cc3)cs2)c(C)cc1C [Compound 288] | > 6.70 |
| Cc1cn(-c2ccc(-c3csc(Nc4cc(N(C)CC5CC5)ccc4C)n3)cc2)cn1 [Compound 305] | > 6.70 |

| Structure (SMILES) | pEC50 |
| --- | --- |
| Cc1cn(-c2ccc(-c3nc(Nc4cc(Cl)c(Cl)cc4Cl)sc3C)cc2)cn1 [Compound 245] | 5.30 to 5.96 |
| Oc1ccc(Nc2nc(-c3ccc(-c4ccccc4)cc3)cs2)cc1 [Compound 121] | 5.00 to 5.29 |
| c1cc2c(cc1Nc1nc(-c3ccc4c(c3)OCCO4)cs1)OCO2 [Compound 103] | 5.00 to 5.29 |
| CC(C)N(c1ccccc1)c1ccc(Nc2nc(-c3ccncc3)cs2)cc1 [Compound 169] | 4.52 to 5.00 |
| Clc1cccc(Nc2nc(-c3ccc(-n4ccnc4)cc3)cs2)c1 [Compound 152] | 4.52 to 5.00 |
| Cc1cn(-c2ccc(-c3csc(Nc4cc(CO)ccc4C)n3)cn2)cn1 [Compound 300] | 6.00 to 6.70 |
| COc1ccc(-c2csc(Nc3ccc(I)cc3)n2)c(OC)c1 [Compound 125] | 5.30 to 5.96 |
| CCOc1cc(C)c(Nc2nc(-c3ccc(N4CCN(C)CC4)cc3)cs2)cc1C [Compound 322] | 5.30 to 5.96 |
| CCN(CC)c1ccc(Nc2nc(-c3ccc(-n4cnc(-c5ccccc5)c4)cc3)cs2)c(C)c1 [Compound 147] | 5.30 to 5.96 |
| Cc1cc(C)c(Nc2nc(-c3ccc(-n4cnc(C)c4)cc3)cs2)c(C)c1 [Compound 250] | 6.00 to 6.70 |
| COc1cccc(CNc2nc(-c3ccc(N4CCN(C)CC4)cc3)cs2)c1 [Compound 135] | 5.30 to 5.96 |
| CCN(CC)c1ccc(F)c(Nc2nc(-c3ccc(-n4cnc(C)c4)cc3)cs2)c1 [Compound 313] | > 6.70 |
| COc1cc(C)c(Nc2nc(-c3ccc(N4CCN(C)CC4)cc3)cs2)cc1C(C)C [Compound 321] | 6.00 to 6.70 |
| COc1cc(Nc2nc(-c3ccc4c(c3)OCCO4)cs2)cc(OC)c1OC [Compound 102] | 5.00 to 5.29 |
| COc1ccc(-c2csc(Nc3ccc(N(C)C)cc3)n2)c(OC)c1 [Compound 114] | 6.00 to 6.70 |
| Cc1ccc(N2CCCCC2)cc1Nc1nc(-c2ccc(-n3ccnc3)cc2)cs1 [Compound 252] | 5.30 to 5.96 |
| c1cc(Nc2nc(-c3ccncc3)cs2)c2cn[nH]c2c1 [Compound 170] | 5.30 to 5.96 |
| CCN(CC)c1cc(Nc2nc(-c3ccc(N4CCN(C)CC4)nc3)cs2)c(C)cc1C [Compound 332] | 5.30 to 5.96 |
| CCc1ccc(Nc2nc(-c3ccc(N4CCN(C)CC4)cc3)cs2)cc1 [Compound 132] | 4.52 to 5.00 |
| CCN(CC)c1ccc(N(CC)c2nc(-c3ccc(-n4cnc(C)c4)cc3)cs2)c(C)c1 [Compound 273] | 6.00 to 6.70 |
| CCOc1cc(C)c(Nc2nc(-c3ccc(-n4cnc(C)c4)nc3)cs2)cc1C [Compound 287] | > 6.70 |

| Structure (SMILES) | pEC50 |
| --- | --- |
| CSc1cccc(Nc2nc(-c3ccc(-c4ccccc4)cc3)cs2)c1 [Compound 168] | 5.30 to 5.96 |
| Cc1ccc(N(C)C)cc1Nc1nc(-c2ccc(-n3ccnc3)cc2)cs1 [Compound 259] | 6.00 to 6.70 |
| CCN(C)c1cc(Nc2nc(-c3ccc(-n4ccnc4)cc3)cs2)c(C)cc1C [Compound 334] | > 6.70 |
| Cc1cn(-c2ccc(-c3csc(Nc4cc(C)c(C)cc4C)n3)cn2)cn1 [Compound 262] | 6.00 to 6.70 |
| CN1CCN(c2ccc(-c3csc(Nc4ccc(Cl)c(Cl)c4)n3)cn2)CC1 [Compound 330] | 5.30 to 5.96 |
| CCN(C)c1ccc(C)c(Nc2nc(-c3ccc(-n4cnc(C)c4)cc3)cs2)c1 [Compound 347] | > 6.70 |
| Cc1cn(-c2ccc(-c3csc(Nc4cc(Cl)c(Cl)cc4Cl)n3)cc2)cn1 [Compound 237] | 6.00 to 6.70 |
| CSc1ccccc1Nc1nc(-c2ccc(N3CCN(C)CC3)cc2)cs1 [Compound 196] | 5.00 to 5.29 |
| CCOc1cc(C)c(Nc2nc(-c3ccc(-n4ccnc4)cc3)cs2)cc1C [Compound 290] | > 6.70 |
| Cc1ccc(C)c(Nc2nc(-c3ccc(-n4cnc(C)c4)cc3)cs2)c1 [Compound 303] | > 6.70 |
| CSc1cccc(Nc2nc(-c3ccc(-n4ccnc4)cc3)cs2)c1 [Compound 144] | 6.00 to 6.70 |
| CSc1cccc(Nc2nc(-c3ccc(-n4cnc(Br)c4)cc3)cs2)c1 [Compound 266] | 5.00 to 5.29 |
| Cc1cn(-c2ccc(-c3csc(Nc4ccc(N5CC(C)OC(C)C5)cc4)n3)cc2)cn1 (stereo not drawn) [Compound 260] | 5.30 to 5.96 |
| COc1ccc(C)c(Nc2nc(-c3ccc(-n4cnc(C)c4)nc3)cs2)c1 [Compound 197] | > 6.70 |
| CN1CCN(c2ccc(-c3csc(Nc4ccc5ccccc5c4)n3)cc2)CC1 [Compound 127] | 5.30 to 5.96 |
| NC(=O)c1ncn(-c2ccc(-c3csc(Nc4ccc(N5CCOCC5)c(Cl)c4)n3)cc2)n1 [Compound 233] | 5.30 to 5.96 |
| FC(F)(F)c1cc(NCc2ccccn2)ccc1Nc1nc(-c2ccc(-n3ccnc3)cc2)cs1 [Compound 223] | 5.00 to 5.29 |
| Cc1cnn(-c2ccc(-c3nc(Nc4c(Cl)cc(Cl)cc4Cl)sc3C)cc2)c1 [Compound 246] | 5.30 to 5.96 |
